Measured values as given in ChEMBL document CHEMBL1157586 (Bioorg Med Chem, 2010).
≈ marks a conversion by molar mass, not a printed value.

Columns and labels:
[1] = Solubility at pH 7; format: physicochemical; conditions: buffer
[2] = molecular target: Cyclin-dependent kinase 2/cyclin A (Homo sapiens, UniProt P24941); experiment: Inhibition of human CDK2/cyclin A expressed in Escherichia coli BL21 by scintillation proximity assay
A2780 = experiment: Antiproliferative activity against human A2780 cells after 72 hrs by CellTiter-Glo luminescence assay; conditions: A2780, 72 h

SMILES | solubility [1] [µM] | IC50 [2] [nM] | IC50 (A2780) [nM]
CC(C)(C)C(=O)N1Cc2c(NC(=O)c3cccnc3)n[nH]c2C1(C)C | 207 (≈ 70.7 µg/mL) | 50 | 690
CN1CCC(C(=O)N2Cc3c(NC(=O)c4ccncc4)n[nH]c3C2(C)C)CC1 | > 225 | 25 | 500
CC1(C)c2[nH]nc(NC(=O)c3ccc(F)cc3)c2CN1C(=O)C1CCN(C2CC2)CC1 | > 225 | 68 | 380
CC(=O)N1CCN(C(=O)N2Cc3c(NC(=O)c4ccc(F)cc4)n[nH]c3C2(C)C)CC1 | > 225 | 540 | > 10000
CN1CCC(C(=O)N2Cc3c(NC(=O)c4ccco4)n[nH]c3C2(C)C)CC1 | > 225 | 33 | > 5000
CC1(C)c2[nH]nc(NC(=O)c3ccc(F)cc3)c2CN1C(=O)N1CCN(c2ccccc2)CC1 | 55 (≈ 25.4 µg/mL) | 3500 | –
CN1CCC(C(=O)N2Cc3c(NC(=O)c4ccc(F)cc4)n[nH]c3C2(C)C)CC1 | > 225 | 23 | 120
CN1CCC(C(=O)N2Cc3c(NC(=O)NCc4ccccc4)n[nH]c3C2(C)C)CC1 | > 225 | 21 | 2680
CN1CCC(C(=O)N2Cc3c(NC(=O)c4cc(F)cc(F)c4)n[nH]c3C2(C)C)CC1 | > 225 | 16 | 130
CN1CCC(C(=O)N2Cc3c(NC(=O)c4ccc(C(F)(F)F)cc4)n[nH]c3C2(C)C)CC1 | 191 (≈ 85.9 µg/mL) | 26 | 60
CC(C)(C)C(=O)N1Cc2c(NC(=O)C3CCNCC3)n[nH]c2C1(C)C | > 225 | 169 | 650
CCN1CCC(C(=O)N2Cc3c(NC(=O)CC(C)C)n[nH]c3C2(C)C)CC1 | > 225 | 14 | 410
CN1CCC(C(=O)N2Cc3c(NC(=O)c4cccc(F)c4)n[nH]c3C2(C)C)CC1 | > 225 | 14 | 200
CN1CCC(C(=O)N2Cc3c(NC(=O)c4ccc(Cl)cc4)n[nH]c3C2(C)C)CC1 | > 225 | 15 | 120
CN1CCC(C(=O)N2Cc3c(NC(=O)c4ccc(F)c(F)c4)n[nH]c3C2(C)C)CC1 | > 225 | 14 | 100
CN1CCC(C(=O)N2Cc3c(NC(=O)Nc4cccc(F)c4)n[nH]c3C2(C)C)CC1 | > 225 | 10 | 350
CC(C)(C)C(=O)N1Cc2c(NC(=O)c3ccc(F)cc3)n[nH]c2C1(C)C | 235 (≈ 84.2 µg/mL) | – | 270

SMILES | solubility [1] [µM] | IC50 [2] [nM] | IC50 (A2780) [nM]
CN1CCC(C(=O)N2Cc3c(NC(=O)C4CCC4)n[nH]c3C2(C)C)CC1 | > 225 | 9 | 140
CN(C)CC(=O)Nc1n[nH]c2c1CN(C(=O)C(C)(C)C)C2(C)C | > 225 | 77 | 580
CCCNC(=O)Nc1n[nH]c2c1CN(C(=O)C1CCN(C)CC1)C2(C)C | > 225 | 11 | 650
CC(=O)N1CCC(C(=O)N2Cc3c(NC(=O)c4ccc(F)cc4)n[nH]c3C2(C)C)CC1 | 204 (≈ 87.2 µg/mL) | 4800 | > 10000
CC(C)(C)C(=O)N1Cc2c(NC(=O)c3ccncc3)n[nH]c2C1(C)C | 205 (≈ 70 µg/mL) | 49 | 110
CCN1CCC(C(=O)N2Cc3c(NC(=O)c4ccc(F)cc4)n[nH]c3C2(C)C)CC1 | > 225 | 30 | 290
CN1CCC(C(=O)N2Cc3c(NC(=O)c4ccccc4)n[nH]c3C2(C)C)CC1 | > 225 | 23 | 160
CN1CCC(C(=O)N2Cc3c(NC(=O)c4cccs4)n[nH]c3C2(C)C)CC1 | 155 (≈ 60.1 µg/mL) | 10 | 30
CC1(C)c2[nH]nc(NC(=O)c3ccc(F)cc3)c2CN1C(=O)N1CCN(CCO)CC1 | > 225 | 60 | > 5000
CN1CCN(C(=O)N2Cc3c(NC(=O)c4ccc(F)cc4)n[nH]c3C2(C)C)CC1 | > 225 | 46 | 180
CN1CCC(C(=O)N2Cc3c(NC(=O)c4ccsc4)n[nH]c3C2(C)C)CC1 | > 225 | 5 | 140
CC(C)CC(=O)Nc1n[nH]c2c1CN(C(=O)C1CCN(C3CC3)CC1)C2(C)C | > 225 | 24 | 320
CN1CCC(C(=O)Nc2n[nH]c3c2CN(C(=O)C(C)(C)C)C3(C)C)CC1 | > 225 | 214 | 350
CC1(C)c2[nH]nc(NC(=O)c3ccc(F)cc3)c2CN1C(=O)C1CCNCC1 | 204 (≈ 78.6 µg/mL) | 30 | 650
CN1CCC(C(=O)N2Cc3c(NC(=O)C4CC4)n[nH]c3C2(C)C)CC1 | > 225 | 15 | 1420
OC[C@H]1O[C@H](OC[C@H]2O[C@@H](O[C@]3(CO)O[C@H](CO)[C@@H](O)[C@@H]3O)[C@H](O)[C@@H](O)[C@@H]2O)[C@H](O)[C@@H](O)[C@H]1O.OC[C@H]1O[C@H](OC[C@H]2O[C@H](O[C@]3(CO)O[C@H](CO)[C@@H](O)[C@@H]3O)[C@H](O)[C@@H](O)[C@@H]2O)[C@H](O)[C@@H](O)[C@H]1O | 200 | 16 | 60
CN1CCC(C(=O)N2Cc3c(NC(=O)c4ccc5ccccc5c4)n[nH]c3C2(C)C)CC1 | 219 (≈ 94.5 µg/mL) | 27 | 270
